Experimental data reported in US20050250113A1, “Mammalian magnesium/manganese sensing G protein coupled receptor” (The Regents of the University of California, priority 2004, published 2005).

What was measured:
[1] = tested on: cells without the receptor; test: Activity assay control: cells without the receptor stimulated with magnesium or manganese; type: cell-based, human; conditions: FIG. 1 right panels
Source text: (§1) Candidate receptors are expressed in human embryonic kidney (HEK) cells containing, e.g., the Gα16-Gαz and/or Gα15 promiscuous G proteins (Offermanns et al., J. Biol. Chem. 270:15175-15180 (1995); Mody et al., Mol. Pharmacol. 57:13-23 (2000)), and assayed for stimulus-evoked changes in intracellular calcium. In this system, receptor activation leads to activation of phospholipase Cβ (PLC-β and release of calcium from internal stores, which can be monitored at the single-cell level using calcium-indicator dyes (Chandrashekar et al., Cell 100:703-711 (2000); Nelson et al., Cell 106:381-390 (2001); Tsien et al., Cell Calcium 6:145-157 (1985)).

R5.24 = target: T1, R5.24 (Homo sapiens, UniProt Q5T6X5); test: Activity assay for R5.24 receptor: stimulus-evoked changes in intracellular calcium in cells expressing R5.24; type: cell-based; conditions: FIG. 1 middle panels, calcium signal
T1 construct: expressed in transfected cells; host or cells: human embryonic kidney (HEK) cells containing Gα16-Gαz and/or Gα15 promiscuous G proteins
T1 sequence (Q5T6X5 19-926): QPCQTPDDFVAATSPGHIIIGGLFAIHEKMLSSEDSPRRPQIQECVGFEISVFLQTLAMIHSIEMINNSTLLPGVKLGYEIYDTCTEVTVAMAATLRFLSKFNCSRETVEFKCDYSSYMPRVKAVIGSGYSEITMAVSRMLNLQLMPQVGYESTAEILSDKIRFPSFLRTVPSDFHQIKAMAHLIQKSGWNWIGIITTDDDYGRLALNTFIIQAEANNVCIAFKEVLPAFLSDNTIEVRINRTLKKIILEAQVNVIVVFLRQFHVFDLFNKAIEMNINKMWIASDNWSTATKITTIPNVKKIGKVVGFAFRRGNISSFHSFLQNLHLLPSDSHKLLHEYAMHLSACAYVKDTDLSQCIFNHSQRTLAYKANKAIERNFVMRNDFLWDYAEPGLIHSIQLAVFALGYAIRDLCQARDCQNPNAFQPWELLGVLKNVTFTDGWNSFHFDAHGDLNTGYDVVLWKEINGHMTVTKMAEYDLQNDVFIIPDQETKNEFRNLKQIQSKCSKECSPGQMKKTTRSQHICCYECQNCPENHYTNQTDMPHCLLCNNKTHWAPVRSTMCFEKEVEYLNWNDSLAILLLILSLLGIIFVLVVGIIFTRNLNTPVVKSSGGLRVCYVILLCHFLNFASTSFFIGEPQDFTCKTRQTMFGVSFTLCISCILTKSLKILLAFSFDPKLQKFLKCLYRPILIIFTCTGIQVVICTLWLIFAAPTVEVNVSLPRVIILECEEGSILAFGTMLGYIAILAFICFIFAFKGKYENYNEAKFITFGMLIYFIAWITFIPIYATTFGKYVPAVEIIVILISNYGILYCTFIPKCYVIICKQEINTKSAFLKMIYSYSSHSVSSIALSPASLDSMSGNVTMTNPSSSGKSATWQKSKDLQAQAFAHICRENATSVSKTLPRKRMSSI
Source text: as §1

SMILES	response of cells without the receptor to stimulation [1]	response of cells expressing R5.24 to stimulation (R5.24)
[Mn+2] [manganese]	do not respond	respond
[Mg+2] [magnesium]	do not respond	respond
